Test system: SW480
Test: Cytotoxicity against human SW480 cells by MTT assay
Type: functional, cell-based

Q: With `CC(C)[C@@H](C)/C=C/[C@@H](C)[C@H]1CCC2=C3C=CC4=CC(=O)CC[C@]4(C)[C@@]3(O)[C@H](O)C[C@@]21C` as the compound, how does the IC50 read?
A: 10 µM
